The values that follow are results of earlier work, collected in paper PMC5278571, “Optimal doses of caspofungin during continuous venovenous hemodiafiltration in critically ill patients” (Critical Care, 2017).

Converted amounts (≈) assume the structure as drawn.

Series [1] deals with Candida and Aspergillus spp., including Candida parapsilosis. The note with it: published MIC90s; cited from earlier work. Here is the method:
(§1) Taking into account a MIC of 0.1 mg/L [4], and using the target pharmacokinetics/pharmacodynamics (PK/PD) described for micafungin, we would have reac ...

In series [2] the test system is Candida. The following applies: MIC taken for the PK/PD target calculation; cited from earlier work. Here is the method: as §1

As usually defined, the MIC90 is the lowest concentration that inhibits either 90% of growth or 90% of the strains tested, depending on the study. As usually defined, the MIC is the least concentration at which growth counts as inhibited. As to `CC[C@H](C)C[C@H](C)CCCCCCCCC(=O)N[C@H]1C[C@@H](O)[C@@H](NCCN)NC(=O)[C@@H]2[C@@H](O)CCN2C(=O)[C@H]([C@H](O)CCN)NC(=O)[C@H]([C@H](O)[C@@H](O)c2ccc(O)cc2)NC(=O)[C@@H]2C[C@@H](O)CN2C(=O)[C@H]([C@@H](C)O)NC1=O` [caspofungin], in series [1], the MIC90 is 2 µg/mL (≈ 1.83 µM). Further, in series [2], the MIC is 0.1 µg/mL (≈ 0.0915 µM).
